Measurements published in ChEMBL document CHEMBL3132769, “Fragment growing to retain or alter the selectivity of anchored kinase hinge-binding fragments” (Medchemcomm, 2014).

Tests used:
[1] = biological target: Platelet-derived growth factor receptor alpha (Homo sapiens) (UniProt P16234); experiment: Inhibition of human PDGFR alpha catalytic domain expressed in baculovirus assessed as substrate phosphorylation using fluorescence-labelled peptides as substrate at 95 uM after 90 mins by microfluidic peptide phosphorylation assay
Platelet-derived growth factor receptor alpha (Homo sapiens), sequence (P16234 whole entry, the tested form may be a part): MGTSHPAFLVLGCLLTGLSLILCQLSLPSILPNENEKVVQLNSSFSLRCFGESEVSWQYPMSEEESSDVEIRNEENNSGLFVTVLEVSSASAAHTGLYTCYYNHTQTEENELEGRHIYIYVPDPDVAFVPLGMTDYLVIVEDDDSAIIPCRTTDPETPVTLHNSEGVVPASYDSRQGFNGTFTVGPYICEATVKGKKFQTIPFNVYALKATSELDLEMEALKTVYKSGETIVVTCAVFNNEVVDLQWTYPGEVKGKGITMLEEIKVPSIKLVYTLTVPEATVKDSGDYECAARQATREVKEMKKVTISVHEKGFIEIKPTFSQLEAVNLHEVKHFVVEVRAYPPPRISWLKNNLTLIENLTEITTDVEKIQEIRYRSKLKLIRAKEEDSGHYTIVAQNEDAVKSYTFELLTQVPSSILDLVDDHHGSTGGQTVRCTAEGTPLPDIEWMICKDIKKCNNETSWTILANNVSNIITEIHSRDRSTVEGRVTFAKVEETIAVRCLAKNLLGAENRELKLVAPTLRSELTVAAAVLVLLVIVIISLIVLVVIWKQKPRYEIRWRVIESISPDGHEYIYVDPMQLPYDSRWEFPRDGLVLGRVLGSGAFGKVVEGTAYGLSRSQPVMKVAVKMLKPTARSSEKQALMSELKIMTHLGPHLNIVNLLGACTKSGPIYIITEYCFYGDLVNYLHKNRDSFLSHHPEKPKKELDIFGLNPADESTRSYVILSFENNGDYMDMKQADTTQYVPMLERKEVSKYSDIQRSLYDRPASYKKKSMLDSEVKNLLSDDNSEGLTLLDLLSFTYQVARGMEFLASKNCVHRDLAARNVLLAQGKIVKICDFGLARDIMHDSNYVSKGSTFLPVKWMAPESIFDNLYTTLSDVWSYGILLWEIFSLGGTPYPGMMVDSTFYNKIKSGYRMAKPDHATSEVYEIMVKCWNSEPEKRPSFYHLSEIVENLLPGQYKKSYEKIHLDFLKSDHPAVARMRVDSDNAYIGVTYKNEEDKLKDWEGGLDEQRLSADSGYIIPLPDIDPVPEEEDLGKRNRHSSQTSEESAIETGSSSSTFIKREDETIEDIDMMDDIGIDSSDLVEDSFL

[2] = biological target: Receptor-type tyrosine-protein kinase FLT3 (Homo sapiens) (UniProt P36888); experiment: Inhibition of human FLT3 catalytic domain expressed in baculovirus assessed as substrate phosphorylation using fluorescence-labelled peptides as substrate at 8 uM after 90 mins by microfluidic peptide phosphorylation assay
Receptor-type tyrosine-protein kinase FLT3 (Homo sapiens), sequence (P36888 whole entry, the tested form may be a part): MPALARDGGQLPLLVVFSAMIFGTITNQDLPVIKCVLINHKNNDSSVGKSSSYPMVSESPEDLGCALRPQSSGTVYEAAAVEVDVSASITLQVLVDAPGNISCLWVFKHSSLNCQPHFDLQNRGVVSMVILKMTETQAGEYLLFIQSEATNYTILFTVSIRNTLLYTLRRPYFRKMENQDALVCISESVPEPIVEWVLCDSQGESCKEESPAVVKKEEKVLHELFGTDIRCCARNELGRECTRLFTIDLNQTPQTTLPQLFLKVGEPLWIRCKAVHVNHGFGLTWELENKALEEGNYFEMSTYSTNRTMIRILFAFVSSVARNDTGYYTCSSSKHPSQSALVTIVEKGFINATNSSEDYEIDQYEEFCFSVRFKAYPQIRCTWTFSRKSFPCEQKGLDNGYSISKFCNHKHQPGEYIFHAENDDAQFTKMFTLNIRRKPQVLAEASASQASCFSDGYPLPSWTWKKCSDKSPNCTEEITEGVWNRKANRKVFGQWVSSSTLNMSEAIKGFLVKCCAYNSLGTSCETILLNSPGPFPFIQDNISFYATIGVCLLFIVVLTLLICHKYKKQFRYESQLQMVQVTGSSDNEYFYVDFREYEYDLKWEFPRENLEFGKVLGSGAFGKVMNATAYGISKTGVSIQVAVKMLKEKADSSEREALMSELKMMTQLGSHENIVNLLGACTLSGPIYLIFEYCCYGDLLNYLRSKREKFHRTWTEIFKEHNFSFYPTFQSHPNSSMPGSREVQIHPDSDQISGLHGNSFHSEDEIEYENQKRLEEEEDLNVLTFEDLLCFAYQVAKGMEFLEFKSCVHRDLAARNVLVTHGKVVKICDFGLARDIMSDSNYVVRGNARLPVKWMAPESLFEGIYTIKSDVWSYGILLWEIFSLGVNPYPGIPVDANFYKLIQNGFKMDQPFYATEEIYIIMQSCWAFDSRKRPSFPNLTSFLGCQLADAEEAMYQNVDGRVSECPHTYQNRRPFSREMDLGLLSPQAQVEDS

[3] = biological target: Tyrosine-protein kinase Lyn (Homo sapiens) (UniProt P07948); experiment: Inhibition of human full length LYN expressed in baculovirus assessed as substrate phosphorylation using fluorescence-labelled peptides as substrate at 8 uM after 90 mins by microfluidic peptide phosphorylation assay
[4] = biological target: T1, Aurora kinase A (Homo sapiens) (UniProt O14965); experiment: Inhibition of human full length AurA expressed in baculovirus assessed as substrate phosphorylation using fluorescence-labelled peptides as substrate at 2 uM after 90 mins by microfluidic peptide phosphorylation assay
T1 sequence (whole entry): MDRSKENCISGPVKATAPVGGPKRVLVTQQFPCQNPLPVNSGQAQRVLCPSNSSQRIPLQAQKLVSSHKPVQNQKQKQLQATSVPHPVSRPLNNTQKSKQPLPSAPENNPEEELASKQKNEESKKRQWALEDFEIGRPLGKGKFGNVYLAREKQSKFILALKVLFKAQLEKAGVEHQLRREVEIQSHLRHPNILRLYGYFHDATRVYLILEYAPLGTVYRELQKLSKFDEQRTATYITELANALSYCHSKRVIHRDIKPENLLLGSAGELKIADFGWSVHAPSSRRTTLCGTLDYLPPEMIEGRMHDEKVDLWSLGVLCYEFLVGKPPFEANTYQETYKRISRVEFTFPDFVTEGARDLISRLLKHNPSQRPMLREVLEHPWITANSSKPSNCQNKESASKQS

[5] = biological target: Cyclin-dependent kinase 2 (Homo sapiens) (UniProt P24941); experiment: Inhibition of human full length CDK2 expressed in baculovirus assessed as substrate phosphorylation using fluorescence-labelled peptides as substrate at 1000 uM after 90 mins by microfluidic peptide phosphorylation assay
[6] = biological target: Ribosomal protein S6 kinase alpha-1 (Homo sapiens) (UniProt Q15418); experiment: Inhibition of human full length RSK1 expressed in baculovirus assessed as substrate phosphorylation using fluorescence-labelled peptides as substrate at 1000 uM after 90 mins by microfluidic peptide phosphorylation assay
Ribosomal protein S6 kinase alpha-1 (Homo sapiens), sequence (Q15418 whole entry): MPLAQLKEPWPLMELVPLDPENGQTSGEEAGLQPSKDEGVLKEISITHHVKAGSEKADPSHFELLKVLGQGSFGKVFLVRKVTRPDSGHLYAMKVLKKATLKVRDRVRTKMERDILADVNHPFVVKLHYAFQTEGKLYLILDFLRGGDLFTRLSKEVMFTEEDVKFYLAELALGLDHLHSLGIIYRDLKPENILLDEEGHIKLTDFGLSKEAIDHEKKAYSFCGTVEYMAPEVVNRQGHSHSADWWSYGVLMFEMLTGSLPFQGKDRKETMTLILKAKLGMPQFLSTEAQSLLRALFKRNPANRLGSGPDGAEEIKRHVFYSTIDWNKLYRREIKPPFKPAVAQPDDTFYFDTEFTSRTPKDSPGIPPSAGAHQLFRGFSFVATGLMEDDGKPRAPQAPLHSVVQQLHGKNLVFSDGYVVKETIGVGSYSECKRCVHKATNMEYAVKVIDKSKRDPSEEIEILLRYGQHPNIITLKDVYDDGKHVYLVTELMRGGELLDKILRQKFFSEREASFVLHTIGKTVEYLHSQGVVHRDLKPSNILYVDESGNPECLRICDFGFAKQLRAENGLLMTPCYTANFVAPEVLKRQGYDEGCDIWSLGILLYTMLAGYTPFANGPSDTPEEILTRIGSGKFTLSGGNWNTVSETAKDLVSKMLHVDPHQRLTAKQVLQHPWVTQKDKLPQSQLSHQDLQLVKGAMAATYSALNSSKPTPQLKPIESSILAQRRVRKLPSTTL

[7] = biological target: MAP kinase p38 (Homo sapiens) (UniProt O15264+Q15759+Q16539+P53778); experiment: Inhibition of human full length p38 beta2 expressed in Escherichia coli cell assessed as substrate phosphorylation using fluorescence-labelled peptides as substrate at 1000 uM after 90 mins by microfluidic peptide phosphorylation assay
[8] = biological target: Protein kinase C beta type (Homo sapiens) (UniProt P05771); experiment: Inhibition of human truncated PKC beta1 expressed in baculovirus assessed as substrate phosphorylation using fluorescence-labelled peptides as substrate at 0.1 uM after 90 mins by microfluidic peptide phosphorylation assay
Protein kinase C beta type (Homo sapiens), sequence (P05771 2-671 limits assumed): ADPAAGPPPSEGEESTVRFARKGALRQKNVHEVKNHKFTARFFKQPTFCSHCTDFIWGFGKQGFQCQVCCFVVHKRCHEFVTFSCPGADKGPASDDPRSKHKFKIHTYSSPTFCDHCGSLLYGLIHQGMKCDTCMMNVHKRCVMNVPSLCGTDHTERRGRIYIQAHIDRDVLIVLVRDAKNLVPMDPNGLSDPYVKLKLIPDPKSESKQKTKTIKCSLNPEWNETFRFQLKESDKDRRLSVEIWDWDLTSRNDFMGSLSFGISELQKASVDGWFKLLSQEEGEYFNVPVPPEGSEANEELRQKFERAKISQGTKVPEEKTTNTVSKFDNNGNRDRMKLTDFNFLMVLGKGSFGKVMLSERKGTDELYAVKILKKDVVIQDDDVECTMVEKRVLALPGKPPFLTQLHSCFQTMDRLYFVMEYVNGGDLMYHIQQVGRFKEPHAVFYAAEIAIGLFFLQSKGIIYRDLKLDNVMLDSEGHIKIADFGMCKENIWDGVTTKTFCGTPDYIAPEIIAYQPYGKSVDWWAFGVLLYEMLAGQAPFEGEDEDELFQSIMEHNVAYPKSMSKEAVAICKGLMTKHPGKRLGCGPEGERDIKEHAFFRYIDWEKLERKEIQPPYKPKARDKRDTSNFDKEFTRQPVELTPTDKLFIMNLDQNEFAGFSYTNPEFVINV

[9] = biological target: Dual specificity tyrosine-phosphorylation-regulated kinase 1A (Rattus norvegicus) (UniProt Q63470); experiment: Inhibition of rat full length DYRK1a expressed in Escherichia coli cell assessed as substrate phosphorylation using fluorescence-labelled peptides as substrate at 0.1 uM after 90 mins by microfluidic peptide phosphorylation assay
[10] = biological target: Insulin receptor (Homo sapiens) (UniProt P06213); experiment: Inhibition of human INSR catalytic domain expressed in baculovirus assessed as substrate phosphorylation using fluorescence-labelled peptides as substrate at […] after 90 mins by microfluidic peptide phosphorylation assay
[11] = biological target: T2, Inhibitor of nuclear factor kappa-B kinase subunit beta (Homo sapiens) (UniProt O14920); experiment: Inhibition of human full length IKK beta expressed in baculovirus assessed as substrate phosphorylation using fluorescence-labelled peptides as substrate at […] after 90 mins by microfluidic peptide phosphorylation assay
T2 sequence (whole entry): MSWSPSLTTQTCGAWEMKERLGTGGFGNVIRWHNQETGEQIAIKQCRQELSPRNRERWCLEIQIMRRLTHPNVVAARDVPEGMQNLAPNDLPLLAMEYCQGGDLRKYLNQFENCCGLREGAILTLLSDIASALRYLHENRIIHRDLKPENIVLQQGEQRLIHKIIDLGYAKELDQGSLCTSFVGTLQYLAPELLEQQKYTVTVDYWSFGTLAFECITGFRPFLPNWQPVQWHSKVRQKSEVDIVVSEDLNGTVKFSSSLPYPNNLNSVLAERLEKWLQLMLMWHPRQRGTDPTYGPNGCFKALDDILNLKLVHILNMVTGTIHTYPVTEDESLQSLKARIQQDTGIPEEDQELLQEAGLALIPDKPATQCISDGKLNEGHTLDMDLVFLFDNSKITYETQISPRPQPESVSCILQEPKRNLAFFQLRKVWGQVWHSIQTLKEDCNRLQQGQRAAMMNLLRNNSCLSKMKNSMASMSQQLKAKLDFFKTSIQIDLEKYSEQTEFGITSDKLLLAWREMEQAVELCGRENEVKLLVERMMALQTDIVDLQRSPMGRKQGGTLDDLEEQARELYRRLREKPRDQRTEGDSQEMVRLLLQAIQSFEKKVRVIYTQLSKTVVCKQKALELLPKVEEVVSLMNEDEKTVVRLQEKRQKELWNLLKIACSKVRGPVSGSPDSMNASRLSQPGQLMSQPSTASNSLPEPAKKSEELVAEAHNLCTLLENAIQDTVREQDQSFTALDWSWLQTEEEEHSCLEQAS

[12] = system: Tyrosine-protein kinase ABL1 (Homo sapiens), P00519 [Q252H]; experiment: Inhibition of human truncated ABL Q252H mutant expressed in baculovirus assessed as substrate phosphorylation using fluorescence-labelled peptides as substrate at 420 uM after 90 mins by microfluidic peptide phosphorylation assay
[13] = biological target: Dual specificity tyrosine-phosphorylation-regulated kinase 1A (Rattus norvegicus) (UniProt Q63470); experiment: Inhibition of rat full length DYRK1a expressed in Escherichia coli cell assessed as substrate phosphorylation using fluorescence-labelled peptides as substrate at 9 uM after 90 mins by microfluidic peptide phosphorylation assay
[14] = biological target: Glycogen synthase kinase-3 beta (Homo sapiens) (UniProt P49841); experiment: Inhibition of human full length GSK-3 beta expressed in baculovirus assessed as substrate phosphorylation using fluorescence-labelled peptides as substrate at 9 uM after 90 mins by microfluidic peptide phosphorylation assay
Glycogen synthase kinase-3 beta (Homo sapiens), sequence (P49841 whole entry, looked up, the tested form may be a part): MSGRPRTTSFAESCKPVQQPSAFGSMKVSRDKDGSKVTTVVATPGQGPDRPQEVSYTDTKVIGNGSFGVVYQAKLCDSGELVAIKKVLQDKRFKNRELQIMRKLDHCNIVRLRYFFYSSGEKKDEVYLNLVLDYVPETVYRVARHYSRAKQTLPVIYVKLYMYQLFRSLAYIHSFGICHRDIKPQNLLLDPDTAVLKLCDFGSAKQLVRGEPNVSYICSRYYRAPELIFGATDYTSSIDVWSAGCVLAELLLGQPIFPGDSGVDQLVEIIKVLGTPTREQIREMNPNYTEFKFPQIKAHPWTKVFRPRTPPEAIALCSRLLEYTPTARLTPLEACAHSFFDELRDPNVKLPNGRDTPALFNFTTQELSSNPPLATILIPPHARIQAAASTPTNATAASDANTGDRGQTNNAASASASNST

[15] = biological target: Mitogen-activated protein kinase 14 (Homo sapiens) (UniProt Q16539); experiment: Inhibition of human truncated p38 alpha expressed in Escherichia coli cell assessed as substrate phosphorylation using fluorescence-labelled peptides as substrate at 9 uM after 90 mins by microfluidic peptide phosphorylation assay
Mitogen-activated protein kinase 14 (Homo sapiens), sequence (Q16539 whole entry, the tested form may be a part): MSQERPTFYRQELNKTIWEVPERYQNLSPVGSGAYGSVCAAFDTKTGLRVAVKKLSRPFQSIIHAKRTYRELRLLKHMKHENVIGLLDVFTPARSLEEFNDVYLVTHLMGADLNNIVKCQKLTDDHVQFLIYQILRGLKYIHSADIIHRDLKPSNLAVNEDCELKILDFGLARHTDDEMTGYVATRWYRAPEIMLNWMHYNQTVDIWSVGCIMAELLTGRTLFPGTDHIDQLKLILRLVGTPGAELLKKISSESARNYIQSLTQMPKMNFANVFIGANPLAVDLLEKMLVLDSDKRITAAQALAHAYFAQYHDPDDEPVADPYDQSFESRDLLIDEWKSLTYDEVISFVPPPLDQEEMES

[16] = biological target: Ribosomal protein S6 kinase alpha-2 (Homo sapiens) (UniProt Q15349); experiment: Inhibition of human full length RSK3 expressed in baculovirus assessed as substrate phosphorylation using fluorescence-labelled peptides as substrate at 9 uM after 90 mins by microfluidic peptide phosphorylation assay
[17] = biological target: Fibroblast growth factor receptor 1 (Homo sapiens) (UniProt P11362); experiment: Inhibition of human FGFR1 catalytic domain expressed in baculovirus assessed as substrate phosphorylation using fluorescence-labelled peptides as substrate at 70 uM after 90 mins by microfluidic peptide phosphorylation assay
Fibroblast growth factor receptor 1 (Homo sapiens), sequence (P11362 22-822 limits assumed): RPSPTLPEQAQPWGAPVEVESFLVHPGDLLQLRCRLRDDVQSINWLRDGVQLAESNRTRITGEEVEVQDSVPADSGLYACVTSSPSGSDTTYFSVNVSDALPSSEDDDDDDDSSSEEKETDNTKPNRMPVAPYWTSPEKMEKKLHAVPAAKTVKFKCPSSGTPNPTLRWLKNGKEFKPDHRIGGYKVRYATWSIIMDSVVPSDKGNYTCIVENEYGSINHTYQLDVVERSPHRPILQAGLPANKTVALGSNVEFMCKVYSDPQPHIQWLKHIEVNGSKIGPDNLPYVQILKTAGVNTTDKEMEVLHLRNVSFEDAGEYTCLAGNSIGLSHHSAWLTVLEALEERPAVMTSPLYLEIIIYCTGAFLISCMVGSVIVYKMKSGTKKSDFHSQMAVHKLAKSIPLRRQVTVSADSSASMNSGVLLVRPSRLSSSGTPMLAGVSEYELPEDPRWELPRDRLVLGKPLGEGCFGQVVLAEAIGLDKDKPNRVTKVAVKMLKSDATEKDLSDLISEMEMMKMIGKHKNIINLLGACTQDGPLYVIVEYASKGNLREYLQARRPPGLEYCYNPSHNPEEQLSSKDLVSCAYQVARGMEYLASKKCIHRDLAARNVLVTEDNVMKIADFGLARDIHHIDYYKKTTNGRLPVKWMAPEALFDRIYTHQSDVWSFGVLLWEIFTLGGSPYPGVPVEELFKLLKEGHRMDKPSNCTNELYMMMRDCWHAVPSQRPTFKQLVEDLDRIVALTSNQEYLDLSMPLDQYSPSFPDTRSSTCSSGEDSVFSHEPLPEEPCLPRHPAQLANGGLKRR

Compound `NCCc1ccc(-c2ncnc3[nH]cnc23)cc1` has an inhibition [1] of 37%.

With `NCC1CCN(c2ncnc3[nH]ccc23)CC1` the inhibition [2] was 0% and the inhibition [3] was 51%.

For `NC1CCN(c2ncnc3[nH]ccc23)CC1`, the inhibition [4] was 64.5%.

`c1cnc2[nH]ccc2c1` was tested, and the inhibition [5] was 45.5%, the inhibition [6] was 60.5% and the inhibition [7] was 0%.

Compound `C[C@H](CN(C)C)Oc1nc(Nc2cc3cccc(Cl)c3cn2)cnc1C#N` has an inhibition [8] of 3% and an inhibition [9] of 3.5%.

For `COC(=O)c1cnc(Nc2cnc(C#N)cn2)cc1NCC1CCNCC1`, the inhibition [10] was 7% and the inhibition [11] was 2%.

`c1nc(N2CCOCC2)c2nc[nH]c2n1` showed an inhibition [12] of 64%.

Work on `NCC1CN(c2ncnc3[nH]c4cnccc4c23)CCO1` (configuration not stated) yielded an inhibition [13] of 7.5%, an inhibition [14] of 94% and an inhibition [15] of 2.5%. It also gave an inhibition [16] of 95.5%.

Work on `CNCc1ccc(-c2ncnc3[nH]cnc23)cc1` yielded an inhibition [17] of 43%.
